In ChEMBL document CHEMBL1201862, “PubChem BioAssay data set” (2004):
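Test compounds were applied to cells in 96-well plates for 48 hours at 5 doses. GI50 is the concentration that inhibits growth by half.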 Active and inactive are the calls of the source. No stated cut-off is given here; in the data, active = GI50 up to about 1.1 µM and inactive = higher.

What was measured:
Assay in all cases: NCI-60 cell line screen, 48 h
COLO 205 = system: COLO 205
M14 = system: M14
SK-MEL-2 = system: SK-MEL-2
SF-268 = system: SF-268
T47D = system: T47D
SK-OV-3 = system: SK-OV-3
SK-MEL-28 = system: SK-MEL-28
786-0 = system: 786-0
UACC-62 = system: UACC-62
A549 = system: A549
SNB-75 = system: SNB-75
RPMI-8226 = system: RPMI-8226
OVCAR-4 = system: OVCAR-4
U-251 = system: U-251
Malme-3M = system: Malme-3M
MDA-MB-435 = system: MDA-MB-435
SNB-19 = system: SNB-19
EKVX = system: EKVX
OVCAR-8 = system: OVCAR-8
SN12C = system: SN12C
MDA-N = system: MDA-N
RXF 393 = system: RXF 393
UACC-257 = system: UACC-257
SW-620 = system: SW-620
SK-MEL-5 = system: SK-MEL-5
SR = system: SR
Hs-578T = system: Hs-578T
K562 = system: K562
HCT-116 = system: HCT-116
A498 = system: A498
MOLT-4 = system: MOLT-4
KM12 = system: KM12
MDA-MB-231 = system: MDA-MB-231
HCC 2998 = system: HCC 2998
NCI/ADR-RES = system: NCI/ADR-RES
HT-29 = system: HT-29
NCI-H522 = system: NCI-H522
NCI-H226 = system: NCI-H226
UO-31 = system: UO-31
CCRF-CEM = system: CCRF-CEM
LOX IMVI = system: LOX IMVI
DU-145 = system: DU-145
OVCAR-5 = system: OVCAR-5
PC-3 = system: PC-3
MCF7 = system: MCF7
IGROV-1 = system: IGROV-1
HL-60 = system: HL-60
SF-539 = system: SF-539
NCI-H23 = system: NCI-H23
OVCAR-3 = system: OVCAR-3
BT-549 = system: BT-549
TK-10 = system: TK-10
CAKI-1 = system: CAKI-1
HCT-15 = system: HCT-15
NCI-H460 = system: NCI-H460

## CSc1c(C#N)c(S)[nH]c(=O)c1C#N
COLO 205
  GI50: 31.9 µM (inactive)
M14
  GI50: 24.5 µM (inactive)
SK-MEL-2
  GI50: 13.7 µM (inactive)
SF-268
  GI50: 32.7 µM (inactive)
T47D
  GI50: 24.9 µM (inactive)
SK-OV-3
  GI50: > 100 µM (inactive)
SK-MEL-28
  GI50: 46.1 µM (inactive)
786-0
  GI50: 71.8 µM (inactive)
UACC-62
  GI50: 21.2 µM (inactive)
A549
  GI50: 40.7 µM (inactive)
SNB-75
  GI50: 32.1 µM (inactive)
RPMI-8226
  GI50: 3.89 µM (inactive)
OVCAR-4
  GI50: 10.4 µM (inactive)
U-251
  GI50: > 100 µM (inactive)
Malme-3M
  GI50: 7.14 µM (inactive)
MDA-MB-435
  GI50: 20.6 µM (inactive)
SNB-19
  GI50: 58.5 µM (inactive)
EKVX
  GI50: 29.6 µM (inactive)
OVCAR-8
  GI50: 47.2 µM (inactive)
SN12C
  GI50: 85.5 µM (inactive)
MDA-N
  GI50: 24.4 µM (inactive)
RXF 393
  GI50: 26.1 µM (inactive)
UACC-257
  GI50: 35.8 µM (inactive)
SW-620
  GI50: 48.9 µM (inactive)
SK-MEL-5
  GI50: 9.91 µM (inactive)
SR
  GI50: 51.2 µM (inactive)
Hs-578T
  GI50: 24.2 µM (inactive)
K562
  GI50: 18.1 µM (inactive)
HCT-116
  GI50: 34.4 µM (inactive)
A498
  GI50: 38.2 µM (inactive)
MOLT-4
  GI50: 33 µM (inactive)
KM12
  GI50: 65.8 µM (inactive)
MDA-MB-231
  GI50: 42.8 µM (inactive)
HCC 2998
  GI50: 36.2 µM (inactive)
NCI/ADR-RES
  GI50: 43.2 µM (inactive)
HT-29
  GI50: 25.4 µM (inactive)
NCI-H522
  GI50: 8.34 µM (inactive)
NCI-H226
  GI50: 30.3 µM (inactive)
UO-31
  GI50: 18.7 µM (inactive)
CCRF-CEM
  GI50: 55.5 µM (inactive)
LOX IMVI
  GI50: 37.1 µM (inactive)
DU-145
  GI50: 48 µM (inactive)
OVCAR-5
  GI50: > 100 µM (inactive)
PC-3
  GI50: 29.4 µM (inactive)
MCF7
  GI50: 37.9 µM (inactive)
IGROV-1
  GI50: 22.8 µM (inactive)
HL-60
  GI50: 1.85 µM (inactive)
SF-539
  GI50: > 100 µM (inactive)
NCI-H23
  GI50: 23.7 µM (inactive)
OVCAR-3
  GI50: 33.8 µM (inactive)
BT-549
  GI50: 40.5 µM (inactive)
TK-10
  GI50: 23.2 µM (inactive)
CAKI-1
  GI50: > 100 µM (inactive)
HCT-15
  GI50: 44.4 µM
NCI-H460
  GI50: 97.7 µM (inactive)
